Source: patent US8961958B2, “High concentration self-microemulsifying coenzyme Q10 preparations for nutritional use” (Bioavailability, Inc, priority 2004, dated 2015)

Tests used:
[1] = Solubility of CoQ10 in solvents; format: physicochemical
Description: The speed at which the CoQ10 dissolves into the solvent is primarily a function of the temperature of the solvent and its viscosity, but the base composition that is prepared at a temperature above […] will have the same properties as a base prepared at a temperature of 37° C. If CoQ10 crystals are added to solvents hot enough to melt CoQ10 (48° C. to about 52° C.) the molten CoQ10 mixes and dissolves almost immediately. On the other hand, under room temperature conditions, several hours of stirring may be required to obtain even a 5% CoQ10 concentration in a highly viscous solvent such as a triglyceride oil. By contrast, a low viscosity solvent, such as sweet orange oil can dissolve a 30% CoQ10 concentration under room temperature almost immediately. The fact that CoQ10 melts at about 48° C. to about 52° C. and then is soluble at high concentrations in a wide range of only modestly hydrophobic media, such as ethanol, is distracting to the design of high concentration CoQ10 solutions at room temperature or body temperature. Many different high concentration solutions of CoQ10 which form readily at the high temperatures of molten CoQ10 are not stable, or are meta-stable, at body temperature.
Primary considerations in the choice of an acceptable water-immiscible solvent are somewhat similar to those in choosing an acceptable surfactant. In addition to the basic requirements of bio-compatibility, low toxicity and good taste and odor, the solvent must have a melting point at or about the temperature of a human and most other mammals (about 37° C.), and be able to dissolve a substantial amount of CoQ10 below body temperature. […] Once such a solvent is identified, the saturation capacity of the solvent with CoQ10 at body temperature is then determined, and a reduction in the concentration of CoQ10 is made to ensure that mixture of the CoQ10 and solvent, along with the more hydrophilic surfactant, will not cause CoQ10 precipitation. […]

[2] = cited from earlier work

COC1=C(OC)C(=O)C(C/C=C(\C)CC/C=C(\C)CC/C=C(\C)CC/C=C(\C)CC/C=C(\C)CC/C=C(\C)CC/C=C(\C)CC/C=C(\C)CC/C=C(\C)CCC=C(C)C)=C(C)C1=O [CoQ10, coenzyme Q10]
thermodynamically stable concentration of CoQ10 in sweet orange oil ([1]; sweet orange oil, body temperature): up to 55%
CoQ10 concentration dissolved in sweet orange oil ([1]; sweet orange oil, room temperature, almost immediately): 30%
CoQ10 dissolvable in triglyceride oils ([1]; triglyceride oils, body temperature): ≤ 5 % by weight
solubility of CoQ10 in water [2]: nearly insoluble in water
